# System: mice
# Assay: Neuropharmacological assay (SmartCube), behavioral signature of compound-treated mice
# Format: in vivo
# Conditions: i.p. 15 min before behavioral test, most efficacious dose(s) of 3 doses
# How it was run: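 Read-out is an automated video-based behavioral signature, scored as per-class probabilities (e.g., anxiolytic, antidepressant) against reference compounds. Dosing was i.p. at three doses, 15 min pre-test, in NMP, polyethylene glycol and propylene glycol. Values shown are from the most efficacious dose(s).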
Structure (SMILES),AD: ADHD (probability that behavioral signature matches class),AG: analgesic (probability that behavioral signature matches class),AX: anxiolytic (probability that behavioral signature matches class),CE: cognitive enhancer (probability that behavioral signature matches class),DP: anti-depressant (probability that behavioral signature matches class),HA: hallucinogen (probability that behavioral signature matches class),MS: mood stabilizer (probability that behavioral signature matches class),PS: anti-psychotic (probability that behavioral signature matches class),SD: sedative hypnotic (probability that behavioral signature matches class),UN: uncharacterized CNS activity (probability that behavioral signature matches class)
"Cc1ccc2c(c1)[C@@H](C1CNC1)OCC2 [Compound I-116, (R)-3-(7-methylisochroman-1-yl)azetidine]",+ (LOQ ≤ + <5%),+ (LOQ ≤ + <5%),++ (5% ≤ ++ <25%),+ (LOQ ≤ + <5%),++ (5% ≤ ++ <25%),+ (LOQ ≤ + <5%),+ (LOQ ≤ + <5%),+++ (25% ≤ +++ <50%),++ (5% ≤ ++ <25%),+ (LOQ ≤ + <5%)
"Fc1ccc2c(c1)CCO[C@@H]2[C@@H]1CCCCN1 [Compound I-73, (S)-2-((S)-6-fluoroisochroman-1-yl)piperidine]",+ (LOQ ≤ + <5%),++ (5% ≤ ++ <25%),++ (5% ≤ ++ <25%),++ (5% ≤ ++ <25%),++ (5% ≤ ++ <25%),+ (LOQ ≤ + <5%),++ (5% ≤ ++ <25%),+ (LOQ ≤ + <5%),+ (LOQ ≤ + <5%),+++ (25% ≤ +++ <50%)
"Cc1cccc2c1[C@H]([C@@H]1CCCN1)OCC2 [Compound I-22, (S)-2-((R)-8-methylisochroman-1-yl)pyrrolidine]",+ (LOQ ≤ + <5%),++ (5% ≤ ++ <25%),++ (5% ≤ ++ <25%),++ (5% ≤ ++ <25%),+++ (25% ≤ +++ <50%),+ (LOQ ≤ + <5%),+ (LOQ ≤ + <5%),+++ (25% ≤ +++ <50%),+ (LOQ ≤ + <5%),+ (LOQ ≤ + <5%)
"Fc1ccc2c(c1)CCO[C@@H]2[C@H]1CCN1 [Compound I-91, (R)-2-((S)-6-fluoroisochroman-1-yl)azetidine]",+ (LOQ ≤ + <5%),++ (5% ≤ ++ <25%),++ (5% ≤ ++ <25%),++ (5% ≤ ++ <25%),++ (5% ≤ ++ <25%),+ (LOQ ≤ + <5%),+ (LOQ ≤ + <5%),+++ (25% ≤ +++ <50%),++ (5% ≤ ++ <25%),++ (5% ≤ ++ <25%)
"Fc1ccc2c(c1)CCO[C@H]2[C@H]1CCCN1 [Compound I-12, (R)-2-((R)-6-fluoroisochroman-1-yl)pyrrolidine]",+ (LOQ ≤ + <5%),++ (5% ≤ ++ <25%),++ (5% ≤ ++ <25%),+ (LOQ ≤ + <5%),++ (5% ≤ ++ <25%),+ (LOQ ≤ + <5%),+ (LOQ ≤ + <5%),++ (5% ≤ ++ <25%),+ (LOQ ≤ + <5%),++++ (50% ≤ ++++)
"N#Cc1ccc2c(c1)[C@@H]([C@H]1CCCN1)OCC2 [Compound I-42, (S)-1-((R)-pyrrolidin-2-yl)isochroman-7-carbonitrile]",+ (LOQ ≤ + <5%),++ (5% ≤ ++ <25%),++ (5% ≤ ++ <25%),++ (5% ≤ ++ <25%),+++ (25% ≤ +++ <50%),+ (LOQ ≤ + <5%),+ (LOQ ≤ + <5%),++ (5% ≤ ++ <25%),++ (5% ≤ ++ <25%),+ (LOQ ≤ + <5%)
"C[C@]1([C@H]2CCCN2)OCc2cc(F)ccc21 [Compound I-125, (R)-2-((S)-5-fluoro-1-methyl-1,3-dihydroisobenzofuran-1-yl)pyrrolidine]",+ (LOQ ≤ + <5%),++ (5% ≤ ++ <25%),++ (5% ≤ ++ <25%),++ (5% ≤ ++ <25%),++++ (50% ≤ ++++),+ (LOQ ≤ + <5%),+ (LOQ ≤ + <5%),+ (LOQ ≤ + <5%),++ (5% ≤ ++ <25%),+ (LOQ ≤ + <5%)
"Fc1ccc2c(c1)CCCO[C@H]2[C@H]1CCCN1 [Compound I-113, (R)-2-((R)-7-fluoro-1,3,4,5-tetrahydrobenzo[c]oxepin-1-yl)pyrrolidine]",+ (LOQ ≤ + <5%),++ (5% ≤ ++ <25%),++ (5% ≤ ++ <25%),++ (5% ≤ ++ <25%),+++ (25% ≤ +++ <50%),+ (LOQ ≤ + <5%),+ (LOQ ≤ + <5%),++ (5% ≤ ++ <25%),++ (5% ≤ ++ <25%),+ (LOQ ≤ + <5%)

# Same assay, conditions: i.p. 15 min before behavioral test, most efficacious dose(s) of 3 doses
row,Structure (SMILES),XG: anxiogenic (probability that behavioral signature matches class)
1,"Cc1ccc2c(c1)[C@@H](C1CNC1)OCC2 [Compound I-116, (R)-3-(7-methylisochroman-1-yl)azetidine]",+ (LOQ ≤ + <5%)
2,"Fc1ccc2c(c1)CCO[C@@H]2[C@@H]1CCCCN1 [Compound I-73, (S)-2-((S)-6-fluoroisochroman-1-yl)piperidine]",+ (LOQ ≤ + <5%)
3,"Cc1cccc2c1[C@H]([C@@H]1CCCN1)OCC2 [Compound I-22, (S)-2-((R)-8-methylisochroman-1-yl)pyrrolidine]",+ (LOQ ≤ + <5%)
4,"Fc1ccc2c(c1)CCO[C@@H]2[C@H]1CCN1 [Compound I-91, (R)-2-((S)-6-fluoroisochroman-1-yl)azetidine]",+ (LOQ ≤ + <5%)
5,"Fc1ccc2c(c1)CCO[C@H]2[C@H]1CCCN1 [Compound I-12, (R)-2-((R)-6-fluoroisochroman-1-yl)pyrrolidine]",+ (LOQ ≤ + <5%)
6,"N#Cc1ccc2c(c1)[C@@H]([C@H]1CCCN1)OCC2 [Compound I-42, (S)-1-((R)-pyrrolidin-2-yl)isochroman-7-carbonitrile]",+ (LOQ ≤ + <5%)
7,"C[C@]1([C@H]2CCCN2)OCc2cc(F)ccc21 [Compound I-125, (R)-2-((S)-5-fluoro-1-methyl-1,3-dihydroisobenzofuran-1-yl)pyrrolidine]",+ (LOQ ≤ + <5%)
8,"Fc1ccc2c(c1)CCCO[C@H]2[C@H]1CCCN1 [Compound I-113, (R)-2-((R)-7-fluoro-1,3,4,5-tetrahydrobenzo[c]oxepin-1-yl)pyrrolidine]",+ (LOQ ≤ + <5%)

# Reference: patent publication US10336732B2, “1-heterocyclyl isochromanyl compounds and analogs for treating CNS disorders” (Sunovion Pharmaceuticals Inc., priority 2015, dated 2019)
